# Where no end group is shown, it is not given here.
# Legend:
# [1] = system: human hair follicle dermal papilla cells (HHFDPCs); test: Proliferation of HHFDPCs (MTT); assay type: cell-based; conditions: 500 nM, 5 μM, and 50 μM, 72 hours, absorbance 540 nm, FIG. 1
# Experimental: The effect of the peptide prepared in Preparation Example 1 above on the proliferation of human hair follicle dermal papilla cells (HHFDPCs) was tested.
# HHFDPCs were seeded in a 96-well cell culture plate at a density of 4×10^3 cells/well and cultured for 24 hours under mesenchymal stem cell complete media conditions. Then, the medium was replaced with serum-free mesenchymal stem cell medium and cultured for additional 24 hours. The cultured cell culture was treated with the peptide prepared in Preparation Example 1 above at 500 nM, 5 μM, and 50 μM, respectively, treated with 1 μM VEGF to serve as a positive control, and not treated with anything to serve as a negative control (con), and these cultures were cultured at 37° C. for additional 72 hours. Thereafter, 10 μL of MTT solution (5 mg/mL) was added thereto, and the mixture was incubated in a CO2 incubator at 37° C. for 4 hours, the medium was removed, and 100 μL of DMSO was added thereto and shaken for 10 minutes. Finally, the absorbance was measured at a wavelength of 540 nm using a spectrophotometer (Molecular Devices (SpectraMax iD3, CA, USA)).
# Akt = Akt phosphorylation in HHFDPCs (Western blot); assay type: cell-based, human; conditions: 500 nM, 5 μM, and 50 μM, 24 hours, FIG. 2
# Experimental: (§1) The effect of the peptide prepared in Preparation Example 1 above on the activation of proliferation-related signaling molecules in human hair follicle dermal papilla cells (HHFDPCs) was confirmed by Western blot method.
# (§2) HHFDPCs were seeded in a 6-well cell culture plate at a density of 4×10^5 cells/well and cultured for 24 hours under mesenchymal stem cell complete media conditions. Then, the medium was replaced with serum-free mesenchymal stem cell medium and cultured for additional 24 hours. The cultured cell culture was treated with the peptide prepared in Preparation Example 1 above at 500 nM, 5 μM, and 50 μM, respectively, 1 μM of Minoxidil (MNX) was treated to serve as a positive control, and not treated with anything to serve as a negative control (con), and the cultures treated with these materials were cultured at 37° C. for additional 24 hours. After washing each culture with PBS, the cells were lysed by treatment with lysis buffer to obtain a cell lysate. Equal amounts of protein samples were prepared by BCA quantification of cell lysates. The prepared protein samples were subjected to electrophoresis using 10% SDS-PAGE. […] The resultant was washed 3 times for 15 minutes each with 0.1% PBS-T (0.1% Tween-20 in PBS), treated with ECL solution (GE Healthcare, USA), and detected with a film.
# [2] = system: extracellular-regulated kinase (ERK); test: ERK phosphorylation in HHFDPCs (Western blot); assay type: cell-based, human; conditions: 500 nM, 5 μM, and 50 μM, 24 hours, FIG. 2
# Experimental: as §1, §2
# beta-catenin = test: Activation of beta-catenin in HHFDPCs (nuclear protein Western blot); assay type: cell-based, human; conditions: 500 nM, 5 μM, and 50 μM, 24 hours, nuclear proteins, FIG. 3
# Experimental: The effect of the peptide prepared in Preparation Example 1 above on the activation of beta-catenin in human hair follicle dermal papilla cells (HHFDPCs) was confirmed by Western blot method.
# HHFDPCs were seeded in a 6-well cell culture plate at a density of 4×10^5 cells/well and cultured for 24 hours under mesenchymal stem cell complete media conditions. Then, the medium was replaced with serum-free mesenchymal stem cell medium and cultured for additional 24 hours. The cultured cell culture was treated with the peptide prepared in Preparation Example 1 above at 500 nM, 5 μM, and 50 μM, respectively, and treated with 10 ng/mL of rhWnt-3a (recombinant human Wnt-3a protein, R&D systems (MN, USA) to serve as a positive control, and not treated with anything to serve as a negative control (con). The cultures treated with these materials were incubated at 37° C. for additional 24 hours. After washing each culture with PBS, nuclear proteins were isolated using a nuclear protein extraction kit (Thermo scientific, USA), and an equal amount of protein sample was prepared by BCA quantification. The prepared protein samples were subjected to electrophoresis using 10% SDS-PAGE. […] The resultant was washed 3 times for 15 minutes each with 0.1% PBS-T (0.1% Tween-20 in PBS), treated with ECL solution (GE Healthcare, USA), and detected with a film.
# LEF-1 = LEF-1 gene expression in HHFDPCs (RT-PCR); assay type: cell-based, human; conditions: 500 nM, 5 μM, and 50 μM, 24 hours, FIG. 4
# Experimental: (§3) The effect of the peptide prepared in Preparation Example 1 above on the expression levels of lymphoid enhancer-binding factor 1 (LEF-1), c-Myc, and Cyclin D1, which are downstream genes of beta-catenin, in human hair follicle dermal papilla cells (HHFDPCs) was determined by the RT-PCR method.
# (§4) HHFDPCs were seeded in a 6-well cell culture plate at a density of 4×10^5 cells/well and cultured for 24 hours under mesenchymal stem cell complete media conditions. Then, the medium was replaced with serum free mesenchymal stem cell medium and cultured for additional 24 hours. The cultured cell culture was treated with the peptide prepared in Preparation Example 1 above at 500 nM, 5 μM, and 50 μM, respectively, and treated with 10 ng/mL of rhWnt-3a (recombinant human Wnt-3a protein, R&D systems (MN, USA) to serve as a positive control, and not treated with anything to serve as a negative control (con), and each was cultured at 37° C. for additional 24 hours. After washing each culture with PBS, RNA was isolated therefrom by treatment with 300 μL of eaay blue (Intron, South Korea). The isolated RNA was quantified using Nano drop, and then subjected to cDNA synthesis using a cDNA synthesis kit (Enzynomics, South Korea). […] The PCR reaction product was electrophoresed on a 1.5% agarose gel, and the bands were detected using the Bio-Rad Gel Image System.
# Cyclin D1 = Cyclin D1 gene expression in HHFDPCs (RT-PCR); assay type: cell-based, human; conditions: 500 nM, 5 μM, and 50 μM, 24 hours, FIG. 4
# Experimental: as §3, §4
# c-Myc = c-Myc gene expression in HHFDPCs (RT-PCR); assay type: cell-based, human; conditions: 500 nM, 5 μM, and 50 μM, 24 hours, FIG. 4
# Experimental: as §3, §4
# DKK-1 = test: Expression of hair loss protein DKK-1 induced by DHT in HHFDPCs (Western blot); assay type: cell-based, human; conditions: 500 nM, 5 μM, and 50 μM, DHT 100 nM simultaneously, 24 hours, FIG. 5
# Source text: It is known that in hair follicles, dihydrotestosterone (DHT) promotes the expression of Dickkopf-1 (DKK-1), and DKK-1 induced by DHT inhibits the proliferation of keratinocytes in hair follicles and causes their apoptosis, thereby promoting hair loss (J of Invest Dermatolo. 2008, February, 128(2), pp. 262-269). The effect of the peptide prepared in Preparation Example 1 above on the expression level of the hair loss-inducing protein DKK-1 in human hair follicle dermal papilla cells (HHFDPCs) was confirmed by Western blot method.
# HHFDPCs were seeded in a 6-well cell culture plate at a density of 4×10^5 cells/well and cultured for 24 hours under mesenchymal stem cell complete media conditions. Then, the medium was replaced with serum-free mesenchymal stem cell medium and cultured for additional 24 hours. The cultured cell culture was treated with 500 nM, 5 μM, and 50 μM of the peptide prepared in Preparation Example 1 above, respectively. treated with 5 μM of finasteride to serve as a positive control, and not treated with anything to serve as a negative control group (con). […] Equal amounts of protein samples were prepared by BCA quantification of cell lysates. […] The resultant was washed 3 times for 15 minutes each with 0.1% PBS-T (0.1% Tween-20 in PBS), treated with ECL solution (GE Healthcare, USA), and detected with a film.
# Ha3-II = Ha3-II gene expression in HHORSCs (RT-PCR); assay type: cell-based, human; conditions: 500 nM, 5 μM, and 50 μM, 24 hours, FIG. 6
# Experimental: (§5) The effect of the peptide prepared in Preparation Example 1 above on the activation of human hair outer root sheath cells (HHORSCs) was confirmed by measuring the gene expression of cytokeratin proteins.
# (§6) HHORSCs were seeded in a 96-well cell culture plate at a density of 4×10^3 cells/well and cultured for 24 hours under mesenchymal stem cell complete media conditions. Then, the medium was replaced with serum free mesenchymal stem cell medium and cultured for additional 24 hours. The cultured cell culture was treated with 500 nM, 5 μM, and 50 μM of the peptide prepared in Preparation Example 1 above, respectively, and treated with 100 nM of epidermal growth factor (EGF) as a positive control, and negative when not treated with anything to serve as a negative control (con), and these cultures were cultured at 37° C. for 24 hours. After washing each culture with PBS, RNA was isolated by treatment with 300 μL of eaay blue (Intron, South Korea). The isolated RNA was quantified using Nano drop, and then subjected to cDNA synthesis using a cDNA synthesis kit (Enzynomics, South Korea). Then, a PCR reaction was performed using the primers shown in Table 3 below and a PCR premix (Enzynomics, South Korea). The PCR reaction product was electrophoresed on a 1.5% agarose gel, and the bands were detected using the Bio-Rad Gel Image System.
# Keratin 5 = Keratin 5 gene expression in HHORSCs (RT-PCR); assay type: cell-based, human; conditions: 500 nM, 5 μM, and 50 μM, 24 hours, FIG. 6
# Experimental: as §5, §6
# Keratin 14 = Keratin 14 gene expression in HHORSCs (RT-PCR); assay type: cell-based, human; conditions: 500 nM, 5 μM, and 50 μM, 24 hours, FIG. 6
# Experimental: as §5, §6
# Keratin 19 = Keratin 19 gene expression in HHORSCs (RT-PCR); assay type: cell-based, human; conditions: 500 nM, 5 μM, and 50 μM, 24 hours, FIG. 6
# Experimental: as §5, §6
# MSX2 = MSX2 expression in HHGMCs (RT-PCR); assay type: cell-based, human; conditions: 500 nM, 5 μM, and 50 μM, 24 hours, FIG. 7
# Experimental: (§7) The effect of the peptide prepared in Preparation Example 1 above on the activation of human hair germinal matrix cells (HHGMCs) was confirmed by measuring the expression of MSX2, Homeobox C13 (HOXC13), and Forkhead Box N1 (FOXN1), which are transcription factors related to cell activation.
# as §6, with “HHGMCs” for “HHORSCs”, “6-well” for “96-well”, “4×10^5” for “4×10^3”, “Then, a PCR reaction was performed using the primers shown in Table 3 below and a PCR premix (Enzynomics, South Korea).” left out
# HOXC13 = HOXC13 expression in HHGMCs (RT-PCR); assay type: cell-based, human; conditions: 500 nM, 5 μM, and 50 μM, 24 hours, FIG. 7
# Experimental: as §7
# as §6, with “HHGMCs” for “HHORSCs”, “6-well” for “96-well”, “4×10^5” for “4×10^3”, “Then, a PCR reaction was performed using the primers shown in Table 3 below and a PCR premix (Enzynomics, South Korea).” left out
# FOXN1 = FOXN1 expression in HHGMCs (RT-PCR); assay type: cell-based, human; conditions: 500 nM, 5 μM, and 50 μM, 24 hours, FIG. 7
# Experimental: as §7
# as §6, with “HHGMCs” for “HHORSCs”, “6-well” for “96-well”, “4×10^5” for “4×10^3”, “Then, a PCR reaction was performed using the primers shown in Table 3 below and a PCR premix (Enzynomics, South Korea).” left out
substance,measurement,setting,value
RHVLKRR [peptide of Preparation Example 1],proliferation of HHFDPCs compared to the negative control (con),[1],promoted the proliferation
same,phosphorylation of Akt,Akt,increased
same,phosphorylation of extracellular-regulated kinase (ERK),[2],increased
same,beta-catenin activation and movement to the nucleus,beta-catenin,activated and its movement to the nucleus was increased
same,gene expression of LEF-1,LEF-1,increased
same,gene expression of Cyclin D1,Cyclin D1,increased
same,gene expression of c-Myc,c-Myc,increased
same,expression of DKK-1 induced by DHT treatment,DKK-1,reduced in a concentration-dependent manner
same,expression of Ha3-II,Ha3-II,increasing
same,expression of Keratin 5,Keratin 5,increasing
same,expression of Keratin 14,Keratin 14,increasing
same,expression of Keratin 19,Keratin 19,increasing
same,expression of MSX2,MSX2,increased
same,expression of HOXC13,HOXC13,increased
same,expression of FOXN1,FOXN1,increased

# Source: patent publication US20260139003A1, “PEPTIDE WITH ACTIVITY OF PROMOTING HAIR GROWTH AND INHIBITING HAIR LOSS AND USE THEREOF” (CAREGEN CO., LTD., priority 2022, published 2026)
